For 13 compounds, GI50 and TGI results are on record in PubChem BioAssay (NCI).

Molecules are shown by their SMILES.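 The compound was tested at five concentrations on cells cultured in 96-well plates, with a 48-hour exposure period. GI50 is the concentration that inhibits growth by half. TGI: concentration producing complete growth inhibition.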

Among the test systems are HT29 colon; RPMI-8226 leukemia; TK-10 renal; CAKI-1 renal; SK-MEL-2 melanoma; HL-60(TB) leukemia; K-562 leukemia; UACC-257 melanoma; OVCAR-4 ovarian; NCI-H23 lung.
Common to all, as to test: NCI-60 cell line screen, 48 h

For the compound `COc1ccc(C(=O)c2cc3c(N)c(C(=O)Nc4cccc(Cl)c4)sc3nc2C)cc1`, the GI50 in the assay with HT29 colon was 1200 nM; in the assay with RPMI-8226 leukemia, 1190 nM; in the assay on TK-10 renal it was > 33.3 µM; with CAKI-1 renal, 1280 nM; in the assay with SK-MEL-2 melanoma it was 11.2 µM; in the assay with HL-60(TB) leukemia, 1090 nM. The GI50 is 1360 nM with K-562 leukemia, 30.7 µM in the assay with UACC-257 melanoma, 9480 nM in the assay with OVCAR-4 ovarian and 2530 nM in the assay on NCI-H23 lung. The TGI in the assay with HT29 colon, in the assay with RPMI-8226 leukemia, in the assay on TK-10 renal, in the assay on CAKI-1 renal, with SK-MEL-2 melanoma and in the assay with HL-60(TB) leukemia was > 33.3 µM each time. The TGI with K-562 leukemia, in the assay on UACC-257 melanoma, with OVCAR-4 ovarian and in the assay on NCI-H23 lung was > 33.3 µM throughout.
On to `O=c1ccc2nc(-c3ccccc3)nn(-c3ccccc3)c-2c1`, for which the GI50 is 1800 nM in the assay on HT29 colon; 2020 nM with RPMI-8226 leukemia; 1.39 µM with TK-10 renal; 1500 nM in the assay with CAKI-1 renal; 2.28 µM in the assay with SK-MEL-2 melanoma; 362 nM in the assay on HL-60(TB) leukemia. Moreover, the GI50 with K-562 leukemia was 353 nM; with UACC-257 melanoma, 1.56 µM; in the assay on OVCAR-4 ovarian, 1500 nM; in the assay on NCI-H23 lung it was 2260 nM. Also, the TGI in the assay on HT29 colon is 3.45 µM; in the assay on RPMI-8226 leukemia, 5.32 µM; in the assay on TK-10 renal, 2.7 µM; with CAKI-1 renal it was 2.89 µM; in the assay on SK-MEL-2 melanoma, 4.45 µM; in the assay on HL-60(TB) leukemia it was 1.24 µM. The TGI with K-562 leukemia was 1.12 µM; with UACC-257 melanoma it was 2.94 µM; in the assay on OVCAR-4 ovarian it was 2.85 µM; in the assay on NCI-H23 lung it was 5.6 µM.
Consider `CC[C@]1(O)C[C@@H]2CN(Cc3c([nH]c4ccccc34)[C@@](C(=O)OC)(c3cc4c(cc3OC)N(C)[C@H]3[C@@](O)(C(=O)OC)[C@H](OC(C)=O)[C@]5(CC)[C@@H]6C[C@@H]6CN6CC[C@]43[C@@H]65)C2)C1`, for which the GI50 in the assay with HT29 colon was 31.1 nM; in the assay on RPMI-8226 leukemia, 37.2 nM; in the assay with TK-10 renal, > 3.69 µM; in the assay with CAKI-1 renal, > 4380 nM; in the assay on SK-MEL-2 melanoma it was 0.033 µM; in the assay with HL-60(TB) leukemia, 15.9 nM. The GI50 is 27.9 nM in the assay on K-562 leukemia, > 4.38 µM in the assay with UACC-257 melanoma, 666 nM with OVCAR-4 ovarian and 195 nM in the assay with NCI-H23 lung. The TGI with HT29 colon, in the assay with RPMI-8226 leukemia, in the assay with TK-10 renal, with CAKI-1 renal, in the assay on SK-MEL-2 melanoma and in the assay on HL-60(TB) leukemia was > 4.38 µM in each case. Moreover, the TGI in the assay with K-562 leukemia, in the assay with UACC-257 melanoma, in the assay with OVCAR-4 ovarian and in the assay on NCI-H23 lung was > 4.38 µM throughout.
Consider `CC(=O)OCC1OC(n2cc(F)c(=O)[nH]c2=O)C(OC(C)=O)C1OC(C)=O` (centres undefined), for which the TGI in the assay on HT29 colon, in the assay with RPMI-8226 leukemia, in the assay on TK-10 renal, in the assay with CAKI-1 renal, with SK-MEL-2 melanoma and in the assay with HL-60(TB) leukemia was > 100 µM each time. The TGI was > 100 µM in the assay on K-562 leukemia, > 100 µM in the assay on UACC-257 melanoma, > 90.3 µM with OVCAR-4 ovarian and > 100 µM in the assay with NCI-H23 lung.
For the compound `COc1ccc(CCNc2nc3ccccc3c3[nH]c4ccccc4c23)cc1OC`, the GI50 was 2040 nM in the assay with HT29 colon; 2180 nM in the assay on RPMI-8226 leukemia; 4.47 µM in the assay on TK-10 renal; 11400 nM in the assay with CAKI-1 renal; 1.98 µM with SK-MEL-2 melanoma; 1650 nM with HL-60(TB) leukemia. In addition, the GI50 in the assay on K-562 leukemia was 2450 nM; with UACC-257 melanoma, 1.99 µM; in the assay with OVCAR-4 ovarian, 3150 nM; in the assay on NCI-H23 lung, 10400 nM. Further, the TGI in the assay on HT29 colon was determined as 6.32 µM; in the assay with RPMI-8226 leukemia, 5.24 µM; in the assay on TK-10 renal it was 17 µM; in the assay on CAKI-1 renal, 24.8 µM; in the assay on SK-MEL-2 melanoma, 3.77 µM; in the assay on HL-60(TB) leukemia, 3.88 µM. Also, the TGI in the assay on K-562 leukemia was 10.2 µM; with UACC-257 melanoma, 3.8 µM; in the assay with OVCAR-4 ovarian, 12.8 µM; with NCI-H23 lung, 24.6 µM.
As for `Cc1ncc(C(=O)Nc2ccc(CN3CCN(C)CC3)c(C(F)(F)F)c2)cc1C#Cc1c(N)ncc2ccc(C#N)cc12`, the GI50 in the assay on HT29 colon is 29.3 nM; in the assay with RPMI-8226 leukemia, 1210 nM; in the assay with TK-10 renal, 3.08 µM; with CAKI-1 renal, 890 nM; in the assay on SK-MEL-2 melanoma, 1.74 µM; with HL-60(TB) leukemia, 9240 nM. Besides, the GI50 with K-562 leukemia is 5 nM; in the assay on UACC-257 melanoma, 0.473 µM; in the assay with OVCAR-4 ovarian, 975 nM; with NCI-H23 lung it was 936 nM. The TGI in the assay on HT29 colon is 7.74 µM; in the assay on RPMI-8226 leukemia, 9.18 µM; in the assay on TK-10 renal, 12.2 µM; in the assay on CAKI-1 renal it was 7.22 µM; with SK-MEL-2 melanoma, 17.5 µM; in the assay on HL-60(TB) leukemia, > 50 µM. Further, the TGI in the assay with K-562 leukemia amounted to 5.3 µM; in the assay with UACC-257 melanoma it was 10.5 µM; with OVCAR-4 ovarian, 11 µM; in the assay on NCI-H23 lung, 8.58 µM.
On to `O=C(CC1Sc2ccccc2NC1=O)Nc1cccc(Cl)c1` (centres undefined), for which the TGI is > 100 µM in the assay on HT29 colon; 69.6 µM with RPMI-8226 leukemia; > 100 µM in the assay with TK-10 renal; > 100 µM with CAKI-1 renal; > 100 µM in the assay on SK-MEL-2 melanoma; > 100 µM with HL-60(TB) leukemia. The TGI in the assay on K-562 leukemia, in the assay with UACC-257 melanoma, in the assay on OVCAR-4 ovarian and with NCI-H23 lung was > 100 µM each time.
As for `CC1CN(CCO)CC(C)O1` (centres undefined), the TGI in the assay with HT29 colon, in the assay on RPMI-8226 leukemia, in the assay on TK-10 renal, in the assay on CAKI-1 renal, with SK-MEL-2 melanoma and in the assay on HL-60(TB) leukemia was > 100 µM throughout. In addition, the TGI with K-562 leukemia, with UACC-257 melanoma, with OVCAR-4 ovarian and in the assay on NCI-H23 lung was > 100 µM throughout.
As to `C=C1C(=O)OC(CCCCCCCC)C1C(=O)O` (centres undefined), the GI50 in the assay with HT29 colon was 22100 nM; in the assay with RPMI-8226 leukemia it was 15000 nM; in the assay with TK-10 renal, 18.9 µM; in the assay on CAKI-1 renal it was 16000 nM; in the assay with SK-MEL-2 melanoma it was 16.1 µM; with HL-60(TB) leukemia, 16600 nM. Besides, the GI50 in the assay on K-562 leukemia is 27900 nM; with UACC-257 melanoma it was 11.6 µM; with OVCAR-4 ovarian, 15300 nM; with NCI-H23 lung, 14200 nM. In addition, the TGI in the assay with HT29 colon is 47.2 µM; in the assay with RPMI-8226 leukemia, 59.7 µM; with TK-10 renal it was 33.6 µM; with CAKI-1 renal, 34.9 µM; with SK-MEL-2 melanoma, 31.7 µM; in the assay on HL-60(TB) leukemia it was 46.4 µM. The TGI in the assay on K-562 leukemia was > 75.8 µM; with UACC-257 melanoma, 25 µM; with OVCAR-4 ovarian, 31.8 µM; with NCI-H23 lung, 29.2 µM.
Take `C[N+](C)(C)CC(=O)N/N=C(/C=C/c1ccccc1)CC1OC(=O)c2ccccc21` (centres undefined): the TGI in the assay on HT29 colon is > 10 µM; in the assay on RPMI-8226 leukemia, > 100 µM; in the assay with TK-10 renal, > 100 µM; in the assay with CAKI-1 renal it was > 100 µM; in the assay with SK-MEL-2 melanoma it was > 100 µM; with HL-60(TB) leukemia, > 100 µM. For the same compound, the TGI with K-562 leukemia was > 100 µM; in the assay with UACC-257 melanoma, > 100 µM; with OVCAR-4 ovarian, > 100 µM; with NCI-H23 lung it was > 10 µM.
Consider `COc1ccc(NC(=O)c2ccc(NC3=C(Cl)C(=O)N(Cc4ccccc4)C3=O)cc2)cc1`, for which the GI50 in the assay with HT29 colon is 11500 nM; in the assay with RPMI-8226 leukemia it was 2380 nM; in the assay on TK-10 renal, 22.1 µM; in the assay with CAKI-1 renal, 1890 nM; in the assay on SK-MEL-2 melanoma, 10.4 µM; in the assay with HL-60(TB) leukemia, 2160 nM. Also, the GI50 in the assay on K-562 leukemia was 4020 nM; with UACC-257 melanoma it was 9.14 µM; with OVCAR-4 ovarian, 3010 nM; in the assay on NCI-H23 lung, 8380 nM. The TGI with HT29 colon stood at 90.3 µM; with RPMI-8226 leukemia, 8.06 µM; with TK-10 renal, 38 µM; with CAKI-1 renal, 3.5 µM; in the assay on SK-MEL-2 melanoma, 56.1 µM; in the assay with K-562 leukemia it was 64.8 µM. Moreover, the values for the TGI in the assay on UACC-257 melanoma, with OVCAR-4 ovarian and in the assay on NCI-H23 lung were 24.8 µM, 8.35 µM and 30 µM, respectively.
Turning to `CCC12C=CCN3CC[C@]4(C(=C(C(=O)OC)[C@@H]1Nc1ncnc5c1ncn5C1OC(COC(C)=O)C(OC(C)=O)C1OC(C)=O)Nc1ccccc14)C32` (some centres undefined), the TGI in the assay with HT29 colon was found to be 4.88 µM; with RPMI-8226 leukemia, 18.9 µM; with TK-10 renal, 6.58 µM; with CAKI-1 renal it was 12.6 µM; in the assay with SK-MEL-2 melanoma it was 9.36 µM; in the assay with HL-60(TB) leukemia, 7.39 µM. Besides, the TGI came out at 17 µM in the assay on K-562 leukemia, 16.8 µM in the assay on UACC-257 melanoma, 5.23 µM in the assay with OVCAR-4 ovarian and 4.06 µM in the assay with NCI-H23 lung.
For `FC(F)(F)c1ccc2nc(-c3nc(-c4ccccc4)n4ccccc34)[nH]c2c1`, the GI50 in the assay with HT29 colon is 3470 nM; in the assay with RPMI-8226 leukemia, 3840 nM; in the assay on TK-10 renal, 2.85 µM; with CAKI-1 renal, 5070 nM; in the assay on SK-MEL-2 melanoma, 14.9 µM; in the assay with HL-60(TB) leukemia it was 27800 nM. The GI50 with K-562 leukemia is 11000 nM; in the assay on UACC-257 melanoma, 13.1 µM; in the assay with OVCAR-4 ovarian, 1810 nM; in the assay with NCI-H23 lung it was 3210 nM. Further, the TGI in the assay with HT29 colon was 11.1 µM; in the assay with RPMI-8226 leukemia it was 36.9 µM; in the assay with TK-10 renal, 5.32 µM; in the assay on CAKI-1 renal, 27.1 µM; in the assay on SK-MEL-2 melanoma, 40.3 µM; in the assay on HL-60(TB) leukemia, > 100 µM. In addition, the TGI is > 100 µM in the assay on K-562 leukemia, 46.2 µM in the assay on UACC-257 melanoma, 3.71 µM in the assay with OVCAR-4 ovarian and 14.7 µM with NCI-H23 lung.
